In patent US10717720B2, “Modified compound of andrographolide” (Heilongjiang Zhenbaodao Pharmaceutical Co., Ltd., priority 2015, dated 2020):
Where two headings read alike, the source gives them in different places.

Test system: LPS-induced IL-6 release level from THP-1 cells
Experiment: Test of IL-6 release from THP-1 cells (LPS-induced, IL-6 in supernatant detected by CBA)
Assay type: cell-based
Details: Homo sapiens, read-out: Inhibition rate @ 10 uM
Method: Test of IL-6 Release from THP-1 Cells
The inhibitory effect of the compound on LPS-induced IL-6 release level from THP-1 cells was evaluated by measuring the level of IL-6 in the cell culture supernatant.
4 ul was taken from each above solution and added to lml of culture solution to make 120 uM, 40 uM, 12 uM, 4 uM. 50 ul per well was taken and added to wells with cells to give final concentrations of 30 uM, 10 uM, 3 uM, and 1 uM, respectively. Dexamethasone was added as a positive drug into an individual cell well with a final concentration of 100 nM. • c) Cell stimulation
The LPS 1 mg/ml solution was diluted to 800 ng/ml with the culture solution and added to the cell culture wells at 50 ul/well. • d) Cell incubation and detection
The cell culture plate was placed in a 37° C. incubator, and the supernatant was collected after culturing for 24 hours. The level of IL-6 in the supernatant was detected by CBA.

[1] = inflammatory factor IL-6 detected by CBA, compound 10 uM, LPS-stimulated THP-1 cells, supernatant after 24 hours

SMILES	inhibition at 10 µM [1] [%]	inhibition at 10 µM (THP-1, 24 h) [%]
C=C1CCC2[C@]3(C)CO[C@@H](C4CCC4)O[C@@H]3CC[C@@]2(C)[C@@H]1CCOc1ccncc1 (stereo partly drawn) [Compound 412, 4-(2-((3R,4aR,6aS,7R,10bR)-3-cyclobutyl-6a,10b-dimethyl-8-dihydromethylenedecahydro-1H-naphtho[2,1-d][1,3]dioxin-7-yl)ethoxy)pyridine]	> 60	–
C=C1CCC2[C@]3(C)CO[C@@H](C4CCCC4)O[C@@H]3CC[C@@]2(C)[C@@H]1CCOc1cnccc1C(=O)O (stereo partly drawn) [Compound 415, 3-(2-((3R,4aR,6aS,7R,10bR)-3-cyclopentyl-6a,10b-dimethyl-8-dihydromethylenedecahydro-1H-naphtho[2,1-d][1,3]dioxin-7-yl)ethoxy)isonicotinic acid]	> 60	–
C=C1CCC2[C@]3(C)COC4(CCCC4)O[C@@H]3CC[C@@]2(C)[C@@H]1CCOc1ccncc1 (some centres unmarked) [Compound 416]	> 60	–
C=C1CCC2[C@]3(C)CO[C@@H](C4CCCC4)O[C@@H]3CC[C@@]2(C)[C@@H]1CCOc1c(C(=O)O)cncc1C(=O)O (stereo partly drawn) [Compound 417, 4-(2-((3R,4aR,6aS,7R,10bR)-3-cyclopentyl-6a,10b-dimethyl-8-dihydromethylenedecahydro-1H-naphtho[2,1-d][1,3]dioxin-7-yl)ethoxy)pyridine-3,5-dicarboxylic acid]	< 30	–
C=C1CCC2[C@]3(C)CO[C@@H](C4CCCC4)O[C@@H]3CC[C@@]2(C)[C@@H]1CCOc1ccnc(OC)c1 (stereo partly drawn) [Compound 420, 4-(2-((3R,4aR,6aS,7R,10bR)-3-cyclopentyl-6a,10b-dimethyl-8-dihydromethylenedecahydro-1H-naphtho[2,1-d][1,3]dioxin-7-yl)ethoxy)-2-methoxypyridine]	< 30	–
C=C1CCC2[C@]3(C)CO[C@@H](C4CCCC4)O[C@@H]3CC[C@@]2(C)[C@@H]1CCOc1ccc(C(=O)O)cc1 (stereo partly drawn) [Compound 422, 4-(2-((3R,4aR,6aS,7R,10bR)-3-cyclopentyl-6a,10b-dimethyl-8-dihydromethylenedecahydro-1H-naphtho[2,1-d][1,3]dioxin-7-yl)ethoxy)benzoic acid]	30 to 60	–
C=C1CCC2[C@]3(C)CO[C@@H](C4CCCC4)O[C@@H]3CC[C@@]2(C)[C@@H]1CCOc1cccc(C(=O)O)c1 (stereo partly drawn) [Compound 423, 3-(2-((3R,4aR,6aS,7R,10bR)-3-cyclopentyl-6a,10b-dimethyl-8-dihydromethylenedecahydro-1H-naphtho[2,1-d][1,3]dioxin-7-yl)ethoxy)benzoic acid]	30 to 60	–
C=C1CCC2[C@]3(C)CO[C@@H](C4CCCC4)O[C@@H]3CC[C@@]2(C)[C@@H]1CCOC1CCN(CC(=O)O)CC1 (stereo partly drawn) [Compound 426, 2-(4-(2-((3R,4aR,6aS,7R,10bR)-3-cyclopentyl-6a,10b-dimethyl-8-dihydromethylenedecahydro-1H-naphtho[2,1-d][1,3]dioxin-7-yl)ethoxy)piperidine-1-yl)acetic acid]	30 to 60	–
C=C1CCC2[C@]3(C)CO[C@@H](C4CCCC4)O[C@@H]3CC[C@@]2(C)[C@@H]1CCOc1ccn(CC(=O)O)c(=O)c1 (stereo partly drawn) [Compound 428, 2-(4-(2-((3R,4aR,6aS,7R,10bR)-3-cyclopentyl-6a,10b-dimethyl-8-dihydromethylenedecahydro-1H-naphtho[2,1-d][1,3]dioxin-7-yl)ethoxy)-2-carbonylpyridin-1(2H)-yl)acetic acid]	–	30 to 60
C=C1CCC2[C@]3(C)CO[C@@H](C4CCCCC4)O[C@@H]3CC[C@@]2(C)[C@@H]1CCOc1ccncc1 (stereo partly drawn) [Compound 429, 4-(2-((3R,4aR,6aS,7R,10bR)-3-cyclohexyl-6a,10b-dimethyl-8-dihydromethylenedecahydro-1H-naphtho[2,1-d][1,3]dioxin-7-yl)ethoxy)pyridine]	< 30	–
C=C1CCC2[C@]3(C)CO[C@@H](C4CCCC4)O[C@@H]3CC[C@@]2(C)[C@@H]1CCOc1cc[nH]c(=O)c1 (stereo partly drawn) [Compound 430, 4-(2-((3R,4aR,6aS,7R,10bR)-3-cyclopentyl-6a,10b-dimethyl-8-dihydromethylenedecahydro-1H-naphtho[2,1-d][1,3]dioxin-7-yl)ethoxy)pyridin-2(1H)-one]	30 to 60	–
C=C1CCC2[C@]3(C)CO[C@@H](C4CCCC4)O[C@@H]3CC[C@@]2(C)[C@@H]1CCOc1cccnc1C(=O)O (stereo partly drawn) [Compound 431, 3-(2-((3R,4aR,6aS,7R,10bR)-3-cyclopentyl-6a,10b-dimethyl-8-dihydromethylenedecahydro-1H-naphtho[2,1-d][1,3]dioxin-7-yl)ethoxy)-2-picolinic acid]	> 60	–
C=C1CCC2[C@]3(C)CO[C@@H](C4CCCC4)O[C@@H]3CC[C@@]2(C)[C@@H]1CCOc1ccc(C(=O)O)nc1 (stereo partly drawn) [Compound 432, 5-(2-((3R,4aR,6aS,7R,10bR)-3-cyclopentyl-6a,10b-dimethyl-8-dihydromethylenedecahydro-1H-naphtho[2,1-d][1,3]dioxin-7-yl)ethoxy)-2-picolinic acid]	> 60	–
C=C1CCC2[C@]3(C)CO[C@@H](C4CCCC4)O[C@@H]3CC[C@@]2(C)[C@@H]1CCN1CCN(C)CC1 (stereo partly drawn) [Compound 433, 1-(2-((3R,4aR,6aS,7R,10bR)-3-cyclopentyl-6a,10b-dimethyl-8-methylene-decahydro-1H-naphtho[2,1-d][1,3]dioxin-7-yl)ethyl)-4-methylpiperazine]	> 60	–
C=C1CCC2[C@]3(C)CO[C@@H](C4CCCC4)O[C@@H]3CC[C@@]2(C)[C@@H]1CCN1CCC[C@H]1C(=O)O (some centres unmarked) [Compound 435]	< 30	–
C=C1CCC2[C@]3(C)CO[C@@H](C4CCCC4)O[C@@H]3CC[C@@]2(C)[C@@H]1CCOc1ncccc1C(=O)O (stereo partly drawn) [Compound 436, 2-(2-((3R,4aR,6aS,7R,10bR)-3-cyclopentyl-6a,10b-dimethyl-8-dihydromethylenedecahydro-1H-naphtho[2,1-d][1,3]dioxin-7-yl)ethoxy)nicotinic acid]	< 30	–
C=C1CCC2[C@]3(C)CO[C@@H](C4CCCC4)O[C@@H]3CC[C@@]2(C)[C@@H]1CCOc1cc(F)ccc1C(=O)O (stereo partly drawn) [Compound 441, 2-(2-((3R,4aR,6aS,7R,10bR)-3-cyclopentyl-6a,10b-dimethyl-8-dihydromethylenedecahydro-1H-naphtho[2,1-d][1,3]dioxin-7-yl)ethoxy)-4-fluorobenzoic acid]	30 to 60	–
C=C1CCC2[C@]3(C)CO[C@@H](C4CCCC4)O[C@@H]3CC[C@@]2(C)[C@@H]1CCOc1cncc(OC)c1 (stereo partly drawn) [Compound 442, 3-(2-((3R,4aR,6aS,7R,10bR)-3-cyclopentyl-6a,10b-dimethyl-8-dihydromethylenedecahydro-1H-naphtho[2,1-d][1,3]dioxin-7-yl)ethoxy)-5-methoxypyridine]	30 to 60	–
C=C1CCC2[C@]3(C)CO[C@@H](C4CCCC4)O[C@@H]3CC[C@@]2(C)[C@@H]1CCOc1cncc(O)c1 (stereo partly drawn) [Compound 443, 5-(2-((3R,4aR,6aS,7R,10bR)-3-cyclopentyl-6a,10b-dimethyl-8-dihydromethylenedecahydro-1H-naphtho[2,1-d][1,3]dioxin-7-yl)ethoxy)-pyridin-3-ol]	30 to 60	–
C=C1CCC2[C@]3(C)CO[C@@H](C4CCCC4)O[C@@H]3CC[C@@]2(C)[C@@H]1CCOc1cc(C#N)ccc1C(=O)O (stereo partly drawn) [Compound 445, 4-cyano-2-(2-((3R,4aR,6aS,7R,10bR)-3-cyclopentyl-6a,10b-dimethyl-8-dihydromethylenedecahydro-1H-naphtho[2,1-d][1,3]dioxin-7-yl)ethoxy)benzoic acid]	< 30	–
C=C1CCC2[C@]3(C)CO[C@@H](C4CCOCC4)O[C@@H]3CC[C@@]2(C)[C@@H]1CCOc1ccncc1 (stereo partly drawn) [Compound 446, 4-(2-((3R,4aR,6aS,7R,10bR)-6a,10b-dimethyl-8-dihydromethylene-3-(tetrahydro-2H-pyran-4-yl)decahydro-1H-naphtho[2,1-d][1,3]dioxin-7-yl)ethoxy)pyridine]	< 30	–
C=C1CCC2[C@]3(C)CO[C@@H](C4CCCC4)O[C@@H]3CC[C@@]2(C)[C@@H]1CCOc1cc(C)ccc1C(=O)O (stereo partly drawn) [Compound 447, 2-(2-((3R,4aR,6aS,7R,10bR)-3-cyclopentyl-6a,10b-dimethyl-8-dihydromethylenedecahydro-1H-naphtho[2,1-d][1,3]dioxin-7-yl)ethoxy)-4-methylbenzoic acid]	< 30	–
C=C1CCC2[C@]3(C)CO[C@@H](C4CCCC4)O[C@@H]3CC[C@@]2(C)[C@@H]1CCOc1cc(Cl)ccc1C(=O)O (stereo partly drawn) [Compound 448, 4-chloro-2-(2-((3R,4aR,6aS,7R,10bR)-3-cyclopentyl-6a,10b-dimethyl-8-dihydromethylenedecahydro-1H-naphtho[2,1-d][1,3]dioxin-7-yl)ethoxy)benzoic acid]	–	< 30
C=C1CCC2[C@]3(C)CO[C@@H](C4CCCC4)O[C@@H]3CC[C@@]2(C)[C@@H]1CCN1CCC[C@@H]1C(=O)O (some centres unmarked) [Compound 450]	> 60	–
C=C1CCC2[C@]3(C)CO[C@@H](C4CCCC4)O[C@@H]3CC[C@@]2(C)[C@@H]1CCN1CCCC[C@@H]1C(=O)O (stereo partly drawn) [Compound 451, (2R)-1-(2-((3R,4aR,6aS,7R,10bR)-3-cyclopentyl-6a,10b-dimethyl-8-methylene-decahydro-1H-naphtho[2,1-d][1,3]dioxin-7-yl)ethyl)piperidine-2-carboxylic acid]	30 to 60	–
C=C1CCC2[C@]3(C)CO[C@@H](C4CCCC4)O[C@@H]3CC[C@@]2(C)[C@@H]1CCOc1cccc(F)c1C(=O)O (stereo partly drawn) [Compound 452, 2-(2-((3R,4aR,6aS,7R,10bR)-3-cyclopentyl-6a,10b-dimethyl-8-dihydromethylenedecahydro-1H-naphtho[2,1-d][1,3]dioxin-7-yl)ethoxy)-6-fluoro-benzoic acid]	30 to 60	–
